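In this assay, cells in 96-well plates receive the compound at five concentrations for 48 hours. Endpoints are linearly interpolated between the surrounding concentrations. GI50: concentration for 50% inhibition of growth. Definition used: TGI = concentration required for complete inhibition of growth.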
How the values were obtained:
Assay in all cases: DTP human tumour cell line panel, 48 h
[1] = system: ACHN renal
[2] = system: M14 melanoma
[3] = system: UO-31 renal
[4] = system: EKVX NSCLC
[5] = system: SF-295 CNS
[6] = system: K-562 leukemia
[7] = system: HL-60(TB) leukemia
[8] = system: SK-MEL-5 melanoma
[9] = system: RXF 393 renal
[10] = system: HOP-92 NSCLC
[11] = system: MDA-MB-435
[12] = system: SW-620 colon
[13] = system: PC-3 prostate
[14] = system: SF-268 CNS
[15] = system: SK-MEL-2 melanoma
[16] = system: NCI/ADR-RES ovarian
[17] = system: U251 CNS
[18] = system: TK-10 renal
[19] = system: CCRF-CEM leukemia
[20] = system: COLO 205 colon
[21] = system: KM12 colon
[22] = system: HCT-116 colon
[23] = system: MCF7 breast
[24] = system: NCI-H460 lung
[25] = system: A498 renal
[26] = system: BT-549 breast
[27] = system: NCI-H23 lung
[28] = system: HT29 colon
[29] = system: OVCAR-5 ovarian
[30] = system: A549 NSCLC
[31] = system: HS 578T breast
[32] = system: OVCAR-3 ovarian
[33] = system: RPMI-8226 leukemia
[34] = system: SR leukemia
[35] = system: HCC-2998 colon
[36] = system: MALME-3M melanoma
[37] = system: UACC-62 melanoma
[38] = system: SN12C renal
[39] = system: SK-OV-3 ovarian
[40] = system: MOLT-4 leukemia
[41] = system: IGROV1 ovarian
[42] = system: CAKI-1 renal
[43] = system: NCI-H226 lung
[44] = system: SNB-19 CNS
[45] = system: SK-MEL-28 melanoma
[46] = system: LOX IMVI melanoma
[47] = system: MDA-MB-231 breast
[48] = system: 786-0 renal
[49] = system: DU-145 prostate
[50] = system: NCI-H522 lung
[51] = system: OVCAR-4 ovarian
[52] = system: SF-539 CNS
[53] = system: T-47D breast
[54] = system: SNB-75 CNS
[55] = system: HOP-62 NSCLC
[56] = system: HCT-15 colon
[57] = system: OVCAR-8 ovarian
[58] = system: UACC-257 melanoma

Clc1ccc(CCC(Cn2ccnc2)Sc2c(Cl)cccc2Cl)cc1 (stereo unspecified)
GI50 [1]: 4.32 µM | TGI [1]: 15.1 µM | GI50 [2]: 4.29 µM | TGI [2]: 14.7 µM | GI50 [3]: 3.07 µM | TGI [3]: 13.8 µM | GI50 [4]: 2.64 µM | TGI [4]: 17 µM | GI50 [5]: 2.56 µM | TGI [5]: 11.9 µM | GI50 [6]: 3.28 µM | TGI [6]: 11.7 µM | GI50 [7]: 2.85 µM | TGI [7]: 5.72 µM | GI50 [8]: 2.08 µM | TGI [8]: 4.88 µM | GI50 [9]: 2.57 µM | TGI [9]: 13.8 µM | GI50 [10]: 1.79 µM | TGI [10]: 7.23 µM | GI50 [11]: 2.78 µM | TGI [11]: 10.3 µM | GI50 [12]: 3.43 µM | TGI [12]: 13.9 µM | GI50 [13]: 2.64 µM | TGI [13]: 12.6 µM | GI50 [14]: 4.36 µM | TGI [14]: 20.2 µM | GI50 [15]: 3.02 µM | TGI [15]: 7.29 µM | GI50 [16]: 3 µM | TGI [16]: 11.7 µM | GI50 [17]: 3.23 µM | TGI [17]: 14 µM | GI50 [18]: 3.52 µM | TGI [18]: 11.9 µM | GI50 [19]: 3.4 µM | TGI [19]: 14.1 µM | GI50 [20]: 3.14 µM | TGI [20]: 11.1 µM | GI50 [21]: 3.19 µM | TGI [21]: 11.2 µM | GI50 [22]: 2.13 µM | TGI [22]: 5.3 µM | GI50 [23]: 3.43 µM | TGI [23]: 13.2 µM | GI50 [24]: 3.07 µM | TGI [24]: 10.8 µM | GI50 [25]: 1.59 µM | TGI [25]: 6.66 µM | GI50 [26]: 4.3 µM | TGI [26]: 15.1 µM | GI50 [27]: 3.41 µM | TGI [27]: 15.5 µM | GI50 [28]: 1.78 µM | TGI [28]: 3.77 µM | GI50 [29]: 6.56 µM | TGI [29]: 20.4 µM | GI50 [30]: 3.5 µM | TGI [30]: 14.5 µM | GI50 [31]: 3.28 µM | TGI [31]: 19.5 µM | GI50 [32]: 3.34 µM | TGI [32]: 10.8 µM | GI50 [33]: 3.25 µM | TGI [33]: > 100 µM | GI50 [34]: 3.64 µM | TGI [34]: 24 µM | GI50 [35]: 2.85 µM | TGI [35]: 11.8 µM | GI50 [36]: 2.92 µM | TGI [36]: 8.21 µM | GI50 [37]: 2.8 µM | TGI [37]: 12.5 µM | GI50 [38]: 2.82 µM | TGI [38]: 14.9 µM | GI50 [39]: 10.9 µM | TGI [39]: 22.8 µM | GI50 [40]: 2.89 µM | TGI [40]: 8.21 µM | GI50 [41]: 4.45 µM | TGI [41]: 18.1 µM | GI50 [42]: 2.6 µM | TGI [42]: 10.5 µM | GI50 [43]: 5.59 µM | TGI [43]: 35.1 µM | GI50 [44]: 5.07 µM | TGI [44]: 48.7 µM | GI50 [45]: 7.03 µM | TGI [45]: 19.5 µM | GI50 [46]: 2.11 µM | TGI [46]: 5.11 µM | GI50 [47]: 3.9 µM | TGI [47]: 18.8 µM | GI50 [48]: 3.49 µM | TGI [48]: 12.4 µM | GI50 [49]: 5.05 µM | TGI [49]: 16.8 µM | GI50 [50]: 2.37 µM | TGI [50]: 7.5 µM | GI50 [51]: 3.58 µM | TGI [51]: 16.5 µM | GI50 [52]: 4.71 µM | TGI [52]: 17.8 µM | GI50 [53]: 2.25 µM | TGI [53]: 10.5 µM | GI50 [54]: 15.4 µM | TGI [54]: 36.4 µM | GI50 [55]: 6.03 µM | TGI [55]: 19.4 µM | GI50 [56]: 3.54 µM | TGI [56]: 13.7 µM | GI50 [57]: 3.15 µM | TGI [57]: 14.3 µM | GI50 [58]: 3.39 µM | TGI [58]: 13 µM

Reference: PubChem BioAssay (NCI)
